Results taken from US10785978B2, “Control and repellency of biting flies, house flies, ticks, ants, fleas, biting midges, cockroaches, spiders and stink bugs” (priority 2012, dated 2020).

Legend:
Format in all cases: in vivo
Brown Dog Ticks = experiment: Second repellent assay against Brown Dog Ticks; conditions: 15% in isopropyl alcohol
Description: Also, a second repellent assay was used to evaluate six test samples against Brown Dog Ticks. Five replicates of five ticks were given the opportunity to quest onto a vertical strip of untreated filter paper and then allowed to move upward toward a second vertical strip of filter paper treated with one of the six candidate repellents or DEET®. In the control situation, the second strip was treated with isopropanol. They were then observed for directional or behavioral changes caused in response to contact with the repellent. Ticks were recorded as either repelled or not repelled. Compounds were diluted in isopropyl alcohol. The percentages of ticks repelled are shown below in Table 6.

Pharaoh ants = experiment: Pharaoh ant behaviour at treated-untreated interface on poster board; conditions: 50% in acetone; 5 minutes after release
Description: Pharaoh ants were tested using the following protocol. The side of a 17″×23″ rectangular sheet of poster board was sprayed with the test sample or acetone, except for a region within a 6″ circle. The treated poster board was allowed to dry. Five worker ants were placed in the center of the 6″ untreated circle and allowed to wander outside the circle onto the treated surface. The behavior of the ants at the treated-untreated interface was recorded for 5 minutes after release. Test compounds were diluted in acetone.

sand flies P. papatasi = experiment: Sand fly bite test on treated human skin with K&D module; conditions: for percent biting, Treatment level 5%: 5% compound in isopropyl alcohol on human skin; for sand flies repelled: at 5%
Description: Control against sand flies was determined by the following protocol as generally described in J. Med. Entomol. 43 (6), 1248-1252 (2006). Volunteers wearing short pants were seated. Using a skin-marking template and a washable-ink marker, skin areas represented by 3- by 4-cm floor opening of six cells of a K&D module were outlined on the outer, top and inner thigh position of each leg of the volunteers. The six treated cell rectangles each represented a random block, and each volunteer had three blocks on each of two thighs. All treatments against the sand flies P. papatasi, were pipetted onto a 4- by 5-cm rectangular area (so the area of skin covered by a treatment exceeded the template marks by 0.5 cm in every direction) of the subjects' skin with 55 ul of isopropyl alcohol/treatment containing 10% or 5% compound/ul isopropyl alcohol. Treating a slightly larger area ensured that the areas beneath each K&D module contained only treated skin. Skin treated with isopropyl alcohol alone served as control. In all tests adjacent cells of the K&D module were supplied with ten sand flies. The sand fly charged K&D module was positioned over the treated skin areas and the trap doors of the K&D module above the areas were opened. After a five minute skin exposure the trap doors were closed. The number of sand fly bites was recorded for each cell. The percent biting is the percent compared to the biting for the control which was taken as 100%.

stable flies = experiment: Stable fly probing on treated warmed blood-filled membranes; conditions: for Probes at 7% test compound: 7% in isopropyl alcohol on membrane; for Probes at 7% test compound / Probes at 15% test compound: twenty minutes, percent of control probes taken as 100%; for Probes at 15% test compound: 15% in isopropyl alcohol on membrane; for repellency compared with DEET: at the same concentrations (7% and 15%)
Description: Five replicates of 100 mixed-sex stable flies each were placed in screened cages. The cages were placed in such a way that the stable flies had access to five warmed, blood-filled membrane walls. The membranes were treated with methyl dihydrojasmonate, gamma-dodecalactone, methyl apritone, or DEET® all at 7% and at 15% in isopropyl alcohol, or isopropyl alcohol as a control. There were five replicates tested with a positional rotation of the repellent at each replicate. Fresh batches of stable flies were used for each replicate. Thus each test sample was tested on each of the five wells, which allowed any positional bias to be eliminated. The number of stable flies probing each well was recorded at two minute intervals for twenty minutes. The total number of probes on each well were tallied at the end of the twenty minute observation period and the average percentage repellency was calculated for each compound. An analysis of variance was conducted to compare the average number of probes on each treatment membrane. The number of probes for the control was taken as the 100% baseline and the percentage for the test compounds is the percent for the number of probes for the test compound compared to the number of control probes.

[1] = tested on: brown marmorated stink bugs (BMSB); experiment: Brown marmorated stink bug repellency, treated vs. untreated filter paper arena
Description: The two semi-circle filter papers were aligned together to completely cover the bottom of the test arena. Control arenas were also set up in a similar fashion except both were treated with acetone. Five replicates of 5 BMSB were then introduced into both the treated and control arenas. By releasing them in the center of the arena, the BMSB were presented with a choice of treated vs. untreated substrate (or untreated vs. untreated in the control arenas). The repellency of the BMSB was recorded at 24 hours post-treatment.

[2] = five minute exposure, percent of control biting taken as 100%

| Compound | Mean % repelled (Brown Dog Ticks) | % crossed without stopping (Pharaoh ants) | % slowed, but crossed (Pharaoh ants) | % stopped at interface (Pharaoh ants) | percent biting, Treatment level 5% (sand flies P. papatasi; [2]) | percent biting, Treatment level-10% (sand flies P. papatasi; 10% compound in isopropyl alcohol on human skin, five minute exposure, percent of control biting taken as 100%) | sand flies repelled (sand flies P. papatasi) | Probes at 7% test compound (stable flies) | Probes at 15% test compound (stable flies) | repellency compared with DEET (stable flies) | % Repellency at 24 hours ([1]; 2.5% in isopropyl alcohol) | % Repellency at 24 hours ([1]; 5% in isopropyl alcohol) |
| --- | --- | --- | --- | --- | --- | --- | --- | --- | --- | --- | --- | --- |
| CCC(C)=CCCC(C)=CCC1CCCC1=O (stereo not drawn) [Methyl apritone, methyl apritone] | 100% | 66% | 2% | 66% | 9.9%^ | 0% | 90.1% | 28.8% | 7.4% | repelled better than DEET® | – | – |
| CCCCCC1C(=O)CCC1CC(=O)OC (stereo not drawn) [Methyl dihydrojasmonate, methyl dihydrojasmonate] | 100% | 50% | 20% | 32% | 0% | – | 100% | 4.5% | 3.2% | repelled better than DEET® | 74% | 100% |
